{
  "source": "paper PMC4041448",
  "about": "(2014)",
  "key": {"[1]": {"tested_on": "RNA hairpin with six 5'CUG/3'GUC internal loops (RNA, repeat) GGGAGAGGGUUUAAUCUGCUGCUGCUGCUGCUGUACGAAAGUACUGCUGCUGCUGCUGCUGAUUGGAUCCGCAAGG", "assay": "competition dialysis", "conditions": "110 mM KCl, 2 mM MgCl2, 2 mM CaCl2, 8 mM Na phosphate; 1 mM EDTA, pH 7.0, 20–22°C; 1 μM ligand, 1.33 μM RNA; compared with MBNL1 protein"}, "[2]": {"tested_on": "U·U RNA hairpin (5'CNG/3'GNC panel) (RNA, mismatch bulge abasic) GGGAGAGGGUUUAAUCUGUACGAAAGUACUGAUUGGAUCCGCAAGG", "assay": "competition dialysis", "conditions": "110 mM KCl, 2 mM MgCl2, 2 mM CaCl2, 8 mM Na phosphate; 1 mM EDTA, pH 7.0, 20–22°C; 1 μM ligand, 1.56 μM RNA; bound ligand concentration"}, "[3]": {"tested_on": "A-G RNA hairpin (5'CNG/3'GNC panel) (RNA, mismatch bulge abasic) GGGAGAGGGUUUAAUCAGUACGAAAGUACGGAUUGGAUCCGCAAGG", "assay": "competition dialysis", "conditions": "110 mM KCl, 2 mM MgCl2, 2 mM CaCl2, 8 mM Na phosphate; 1 mM EDTA, pH 7.0, 20–22°C; 1 μM ligand, 1.56 μM RNA; bound ligand concentration"}, "[4]": {"tested_on": "no loop RNA (RNA, hairpin) GGGAGAGGGUUUAAUCAGUACGAAAGUACUGAUUGGAUCCGCAAGG", "assay": "competition dialysis", "conditions": "110 mM KCl, 2 mM MgCl2, 2 mM CaCl2, 8 mM Na phosphate; 1 mM EDTA, pH 7.0, 20–22°C; 1 μM ligand, 1.56 μM RNA; bound ligand concentration"}, "[5]": {"tested_on": "Cy3-(CUG)10 RNA (RNA, repeat) CUGCUGCUGCUGCUGCUGCUGCUGCUGCUG", "assay": "fluorescence titration (Cy3 emission)", "conditions": "HEPES-buffered saline; 0.5% DMSO, 0.005% Tween-20; one-site fit"}},
  "data": [
    {"smiles": "COC(=O)c1ccc(O)c2nc3c(C=O)c(O)c(-c4c(O)c(C=O)c5nc6c(O)ccc(C(=O)OC)c6nc5c4O)c(O)c3nc12", "values": [
      {"measurement": "binding", "setting": "[1]", "result": "yes"},
      {"measurement": "binding", "setting": "[2]", "result": "yes"},
      {"measurement": "Bound Dilomofungin (Cb)", "setting": "[3]", "result": "77.8 ± 33", "unit": "nM"},
      {"measurement": "Bound Dilomofungin (Cb)", "setting": "[4]", "result": "228 ± 77", "unit": "nM"},
      {"measurement": "KD", "setting": "[5]", "result": "606 ± 300", "unit": "nM"}
    ]},
    {"smiles": "COC(=O)c1ccc(O)c2nc3c(C=O)c(O)cc(O)c3nc12", "values": [
      {"measurement": "binding", "setting": "[1]", "result": "yes"},
      {"measurement": "binding", "setting": "[2]", "result": "yes"},
      {"measurement": "KD", "setting": "[5]", "result": "998 ± 180", "unit": "nM"}
    ]}
  ]
}
